For nine molecules, IC50 results are on record in patent US20090118274A1, “MONOCYCLIC AMINOPROPYL TETRAHYDRO-PYRAZOLO-PYRIDINE MODULATORS OF CATHEPSIN S” (priority 2007, published 2009).

In one assay the target is T1, Recombinant human cathepsin S (CatS) (Homo sapiens, UniProt P25774).
T1 construct: made in house
T1 sequence (P25774 115-331): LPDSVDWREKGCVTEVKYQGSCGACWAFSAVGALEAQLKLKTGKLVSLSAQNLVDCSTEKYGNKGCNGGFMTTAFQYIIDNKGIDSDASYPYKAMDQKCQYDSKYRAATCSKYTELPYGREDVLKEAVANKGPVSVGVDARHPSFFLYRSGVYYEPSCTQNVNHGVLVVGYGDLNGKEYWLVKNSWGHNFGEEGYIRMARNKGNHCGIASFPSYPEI
The experiment in a line: Recombinant human cathepsin S (CatS) fluorogenic substrate inhibition assay. Type of assay: biochemical.
Conditions: not given
The procedure:
Recombinant human cathepsin S (CatS) was expressed in the baculovirus system and purified in one step with a thiopropyl-sepharose column. […] The assay is run in 150 mM sodium acetate pH 5.0 containing 1.5 mM DTT and 150 mM NaCl. […] Measurements are taken every min for 20 min. The rate is calculated from the slope of the increase in fluorescence and the percent inhibition is calculated from this.
By IC50 is commonly meant the concentration needed to halve the response being measured. In the case of `CS(=O)(=O)N1CCc2c(c(-c3ccc(Cl)c(CNC(=O)c4ccc(F)cc4)c3)nn2CC(O)CN2CCC(C(F)(F)F)CC2)C1` (stereo not drawn) [Example 15, N-(2-Chloro-5-{1-[2-hydroxy-3-(4-trifluoromethyl-piperidin-1-yl)-propyl]-5-methanesulfonyl-4,5,6,7-tetrahydro-1H-pyrazolo[4,3-c]pyridin-3-yl}-benzyl)-4-fluoro-benzamide], the 50% inhibitory concentration (IC50) came out at 70 nM.

Still in this assay, the particulars now being: average of results obtained; substrate Z-Valine-Valine-Arginine-AMC 10 μM, pH 5.0; read-out: CatS IC50.
On to `CS(=O)(=O)N1CCc2c(c(-c3ccc(C(F)(F)F)c(CNC(=O)c4ccc(F)cc4)c3)nn2CC(O)CN2CCOCC2)C1` (stereo not drawn) [Example 23, 4-Fluoro-N-{5-[1-(2-hydroxy-3-morpholin-4-yl-propyl)-5-methanesulfonyl-4,5,6,7-tetrahydro-1H-pyrazolo[4,3-c]pyridin-3-yl]-2-trifluoromethyl-benzyl}-benzamide], for which the IC50 stood at 150 nM.
For the molecule `CS(=O)(=O)N1CCc2c(c(-c3ccc(Cl)c(CNC(=O)c4ccc(Cl)cc4)c3)nn2CCCN2CCCC2)C1` [Example 86, 4-Chloro-N-{2-chloro-5-[5-methanesulfonyl-1-(3-pyrrolidin-1-yl-propyl)-4,5,6,7-tetrahydro-1H-pyrazolo[4,3-c]pyridin-3-yl]-benzyl}-benzamide], the IC50 came out at 960 nM.
On the same count and under the same terms, the figure for `CS(=O)(=O)N1CCc2c(c(-c3ccc(C(F)(F)F)c(CNC(=O)c4ccccc4)c3)nn2CC(O)CN2CCCC2)C1` (stereo not drawn) [Example 56, N-{5-[1-(2-Hydroxy-3-pyrrolidin-1-yl-propyl)-5-methanesulfonyl-4,5,6,7-tetrahydro-1H-pyrazolo[4,3-c]pyridin-3-yl]-2-trifluoromethyl-benzyl}-benzamide] is 250 nM; for `CC(C)=CC(=O)NCc1cc(-c2nn(CC(O)CN3CCC(N(C)C)CC3)c3c2CN(S(C)(=O)=O)CC3)ccc1C(F)(F)F` (stereo not drawn) [Example 34, 3-Methyl-but-2-enoic acid 5-{1-[3-(4-dimethylamino-piperidin-1-yl)-2-hydroxy-propyl]-5-methanesulfonyl-4,5,6,7-tetrahydro-1H-pyrazolo[4,3-c]pyridin-3-yl}-2-trifluoromethyl-benzylamide] it is 260 nM.
`CS(=O)(=O)N1CCc2c(c(-c3ccc(C(F)(F)F)c(CNc4nc5ccccc5o4)c3)nn2CC(O)CN2CCCC2)C1` (stereo not drawn) [Example 68, 1-{3-[3-(Benzooxazol-2-ylaminomethyl)-4-trifluoromethyl-phenyl]-5-methanesulfonyl-4,5,6,7-tetrahydro-pyrazolo[4,3-c]pyridin-1-yl}-3-pyrrolidin-1-yl-propan-2-ol]: the IC50 turned out to be 750 nM.
As to `CS(=O)(=O)N1CCc2c(c(-c3ccc(Cl)c(CNC(=O)c4cc5ccccc5s4)c3)nn2CCCN2CCCC2)C1` [Example 164, Benzo[b]thiophene-2-carboxylic acid 2-chloro-5-[5-methanesulfonyl-1-(3-pyrrolidin-1-yl-propyl)-4,5,6,7-tetrahydro-1H-pyrazolo[4,3-c]pyridin-3-yl]-benzylamide], the IC50 worked out at 410 nM.
As to `CS(=O)(=O)N1CCc2c(c(-c3ccc(Cl)c(CNC(=O)c4ccc(F)cc4)c3)nn2CC(O)CN2CCC3(CCNC3=O)CC2)C1` (stereo not drawn) [Example 11, N-(2-Chloro-5-{1-[2-hydroxy-3-(1-oxo-2,8-diaza-spiro[4.5]dec-8-yl)-propyl]-5-methanesulfonyl-4,5,6,7-tetrahydro-1H-pyrazolo[4,3-c]pyridin-3-yl}-benzyl)-4-fluoro-benzamide], the IC50 came to 90 nM.
Turning to `CS(=O)(=O)N1CCc2c(c(-c3ccc(C(F)(F)F)c(CNC(=O)c4ccc(F)cc4)c3)nn2CC(O)CN2CNC(=O)C2)C1` (stereo not drawn) [Example 171, 4-Fluoro-N-(5-{1-[2-hydroxy-3-(4-oxo-imidazolidin-1-yl)-propyl]-5-methanesulfonyl-4,5,6,7-tetrahydro-1H-pyrazolo[4,3-c]pyridin-3-yl}-2-trifluoromethyl-benzyl)-benzamide], the IC50 worked out at 600 nM.
